From article PMC8849047, “Salicylate metal-binding isosteres as fragments for metalloenzyme inhibition” (Chemical Science, 2022)
Where two headings read alike, the source gives them in different places.

Assays:
[1] = target: T1, Recombinant human glyoxalase I (GLO1) (Homo sapiens, UniProt Q04760); assay: GLO1 enzyme inhibition assay (absorbance at 240 nm); format: biochemical; details: for inhibition at 100 µM: read-out: %inhib GLO1; for IC50: dose-response curves, read-out: IC50 against GLO1
T1 construct: purchased R&D Systems 4959-GL
T1 sequence (Q04760 2-184 limits assumed): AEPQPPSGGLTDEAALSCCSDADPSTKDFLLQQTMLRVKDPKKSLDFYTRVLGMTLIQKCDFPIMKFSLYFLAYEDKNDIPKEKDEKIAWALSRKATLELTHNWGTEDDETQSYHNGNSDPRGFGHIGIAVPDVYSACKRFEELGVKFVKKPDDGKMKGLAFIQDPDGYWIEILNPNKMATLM
Procedure: To evaluate if the salicylate MBIs could serve as starting points for future FBDD campaigns, the MBI library was screened for inhibitory activity against human glyoxalase I (GLO1) at fragment concentrations of 100 μM (Table 2). […] Recombinant human glyoxalase I (GLO1) was purchased from R&D Systems (catalog #4959-GL). Assays were carried out in 0.1 M sodium phosphate, pH 7.0 buffer, utilizing 96-well clear UV plates (Corning UV Transparent Microplates, catalog #3635). A fresh solution of GSH (100 mM) and methylglyoxal (MG) (100 mM) was prepared in Millipore grade water. […] The substrate mixture was vortexed vigorously for 45 s and then allowed to sit at room temperature for 15 min. The initial well volume was 50 μL containing GLO1 (40 ng) and inhibitor. This protein and inhibitor mixture was incubated for 15–20 min prior to addition of the substrate. […] The enzyme activity was measured utilizing a Biotek Synergy HT or H4 plate reader by measuring absorbance at 240 nm every 1 min for a duration of 8 min. The rate of absorbance increase was compared for samples versus controls containing no inhibitor (set at 100% activity). The absorbance reading for background wells containing DMSO, buffer, and substrate (no enzyme or inhibitor) was subtracted from the experimental wells. […] Dose-response curves were generated, analysed and fitted to obtain IC50 values (see ESI ^†).
5. Single Point screening
Single point screening of salicylate MBI library against GLO1 at 100 µM inhibitor concentration. Chugai 1 (4,6-diphenyl-N-hydroxypyridone) 4 as positive control. […]
6. Dose-response curves against GLO1
The raw data from the GLO1 assay was background corrected and normalized from 0 to 100 with 100 being the largest mean of each dataset. A variable slope log-logistic model was chosen for curve fitting.
The corresponding datapoints are shown as empty bullets and were not included in the curve-fitting. The resulting restricted datasets were fitted according to a literature procedure setting the lower limit of the dose-response curve to zero. This compensates for the loss of information caused by trimming of the dataset. 5,6
Figure S7. Dose-response curve of 11 against GLO1.

[2] = log P by potentiometric titration octanol/water (Sirius T3); log D7.4 calculated from pKa and log P; format: physicochemical; details: for logD: pH 7.4
Procedure: In addition to gaining an understanding about the metal coordinating properties of the salicylate MBIs by using [(Tp^Ph,Me)Zn(MBI)] model complexes, the physicochemical properties of the MBIs were also studied. The acidity (pKa) and lipophilicity (log P) were measured using potentiometric methods and the lipophilicity at physiological pH (log D7.4) was calculated from these two values (Table 1).[23–25]
(§1) Physicochemical properties were determined using a Sirius T3 instrument.[23–25] […] The pKa of a compound was determined by analysing each MBI sample in triplicate using potentiometric titrations. Experiments were typically performed over a pH range of 2.0–12.0. Standard deviations were derived from fitting all three replicate experiments. For water insoluble compounds methanol was added and the obtained apparent pKa (psKa) was extrapolated to the aqueous pKa by the Yasuda–Shedlovsky procedure. log P was determined via potentiometric titrations in the presence of varying ratios of octanol and water. The presence of octanol shifts the pKa of ionizable species, and based on the shifts, a log P can be determined. Measurements for log P determination were typically performed over a pH range of 2.0–12.0. Three experiments with varying ratios of water:octanol was performed, allowing for a standard deviation to be determined from the fitting of all measurements. MBI sample sizes were ∼0.5 mg for both pKa and log P measurements.

[3] = test system: influenza H1N1 N-terminal PA endonuclease (PAN); assay: PAN endonuclease inhibition assay (fluorescent ssDNA-oligo substrate); format: biochemical; details: 100 μM; standard deviation in parentheses
[4] = pKa by potentiometric titration (Sirius T3); format: physicochemical
Procedure: In addition to gaining an understanding about the metal coordinating properties of the salicylate MBIs by using [(Tp^Ph,Me)Zn(MBI)] model complexes, the physicochemical properties of the MBIs were also studied.
as §1

[5] = target: T2, Human recombinant MMP-3 catalytic domain (Homo sapiens, UniProt P08254); assay: MMP-3 enzyme inhibition assay (chromogenic substrate, 412 nm); format: biochemical; details: standard deviation in parentheses, read-out: %inhib MMP-3
T2 construct: Human recombinant MMP-3 catalytic domain was purchased; purchased ENZO Life Sciences BML-SE109-9090
T2 sequence (P08254 100-272 limits assumed): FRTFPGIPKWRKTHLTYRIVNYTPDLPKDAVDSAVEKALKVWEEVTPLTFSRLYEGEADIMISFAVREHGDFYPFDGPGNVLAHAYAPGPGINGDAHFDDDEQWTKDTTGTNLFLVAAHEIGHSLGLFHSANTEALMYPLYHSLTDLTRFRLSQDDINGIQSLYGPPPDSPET
Procedure: To probe the selectivity of the salicylate MBIs, the library was screened against matrix metalloproteinase-3 (MMP-3) at fragment concentrations of 100 μM (Table 2).
Human recombinant MMP-3 catalytic domain was purchased from ENZO Life Sciences (catalog # BML-SE109-9090). Assays were carried out in clear Costar 96-well, half-area, flat-bottom assay plates (catalog # 80-2404). Each well contained a total volume of 100 μL including buffer (50 mM MES, 10 mM CaCl2, 0.05% Brij-35, 1 mM DNTB, pH 6.0), MMP-3 (2 U), and the fragment solution. After a 30 min incubation period at 37 °C, the reaction was initiated by the addition of 10 μL of chromogenic MMP-3 substrate (100 μM final concentration, Ac-Pro-Leu-Gly-[2-mercap-to-4-methyl-pentanoyl]-Leu-Gly-OC2H5, ENZO Life Sciences, catalog #BML-P125-0005). Absorbance was monitored at 412 nm using a Bio-Tek ELx 808 colorimetric plate reader, and measurements were recorded every minute for 10 min. The rate of absorbance increase was compared for samples versus negative controls (no inhibitor, arbitrarily set as 100% activity).
5. Single Point screening […]
Figure S5. Single point screening of salicylate MBI library against MMP-3 at 100 µM inhibitor
concentration. NNGH as positive control.

[6] = 100 μM, standard deviation in parentheses
[7] = calculated from measured pKa and log P, read-out: log D7.4
[8] = potentiometric, octanol/water, read-out: log P
[9] = potentiometric, 0.15 M KCl, triplicate, read-out: pKa (pKa,1)

SMILES | inhibition at 100 µM [1, 6] [%] | logP [2] | logD [2] | %inhib Endo (PAN) [3] | pKa ([4]; pKa (pKa,1)) | inhibition at 100 µM [5] [%] | further results
CONC(=O)c1cccc2nc[nH]c12 [Compound 18] | 20 | 0.05 | 0.01 | 22 (7) % | 4.23 | 0 | pKa ([4]; pKa): 8.4; pKa ([4]; pKa (third printed value)): > 12
Oc1ccccc1-c1ncccn1 [Compound 10] | 15 | – | – | – | – | 0 | –
CONC(=O)c1cccc2oc(=O)[nH]c12 [Compound 17] | 33 | 0.4 | 0.18 | 23 (6) % | 7.58 | 0 | pKa ([4]; pKa): 12.5
O=C(O)c1cccc2oc(=O)[nH]c12 [Compound 3] | 29 | 1.28 | -2.47 | 11 (7) % | 3.65 | 0 | pKa ([4]; pKa): 10.3
O=c1[nH]c2c(-c3nnn[nH]3)cccc2o1 [Compound 21] | 39 | – | – | 0% | – | 0 | –
OC1(c2cccc3nn[nH]c23)COC1 [Compound 24] | 19 | – | – | 32 (8) % | – | 0 | –
COC(=O)c1cccc2nc[nH]c12 [Compound 14] | 19 | 1.73 | 1.73 | 37 (5) % | 4.51 | 7 | pKa ([4]; pKa): 12.3
CONC(=O)c1ccccc1O [Compound 7] | 22 | 0.85 | 0.49 | 46 (8) % | 7.23 | 0 | pKa ([4]; pKa): 12
CS(=O)(=O)Nc1ccccc1-c1nnn[nH]1 [Compound 20] | – | – | – | 43 (4) % | – | 3 | inhibition at 100 µM [1]: 10%; logD [2, 7]: -0.43; logP [2, 8]: 1.18; pKa ([4]; potentiometric, 0.15 M KCl, triplicate, read-out: pKa): 9.52; pKa [4, 9]: 3.62
Oc1ccc(N2CCCC2)cc1-c1nc2ccccc2s1 [Compound 11f] | – | – | – | – | – | – | IC50 [1]: 4.4 ± 1.8 µM
CS(=O)(=O)Nc1ccccc1C(=O)O [Compound 2] | 18 | 1.39 | -2.97 | 1 (9) % | 3.04 | 11 | pKa ([4]; pKa): 10.8
CS(=O)(=O)Nc1ccccc1-c1ncccn1 [Compound 25] | 19 | – | – | 21 (8) % | – | 0 | –
COC(=O)c1ccccc1NS(C)(=O)=O [Compound 12] | – | – | – | 33 (11) % | – | 12 | inhibition at 100 µM [1]: 18%; logD [2, 7]: 1.49; logP [2, 8]: 1.51; pKa [4, 9]: 8.86
Oc1ccc(-c2ccoc2)cc1-c1nc2ccccc2s1 [Compound 11g] | – | – | – | – | – | – | IC50 [1]: 6.9 ± 2.8 µM
COC(=O)c1cccc2nn[nH]c12 [Compound 15] | 22 | 1.31 | 1.21 | 42 (6) % | 7.96 | 0 | –
Cc1cccc(-c2ccc(O)c(-c3nc4ccccc4s3)c2)c1 [Compound 11b] | – | – | – | – | – | – | IC50 [1]: 6.8 ± 1.4 µM
Oc1ccc(N2CCCCC2)cc1-c1nc2ccccc2s1 [Compound 11d] | – | – | – | – | – | – | IC50 [1]: > 20 µM
Oc1ccc(-c2cccc(Cl)c2)cc1-c1nc2ccccc2s1 [Compound 11c] | – | – | – | – | – | – | IC50 [1]: 3.3 ± 0.7 µM
Oc1ccccc1C1(O)COC1 [Compound 9] | 9 | 0.43 | 0.42 | 17 (9) % | 9.38 | 0 | –
OC1(c2cccc3nc[nH]c23)COC1 [Compound 23] | 10 | – | – | 22 (8) % | – | 4 | –
Oc1ccccc1-c1nnn[nH]1 [Compound 8] | 24 | 1.54 | -0.46 | – | 4.63 | 6 | pKa ([4]; pKa): 10.9
c1cc(-c2nnn[nH]2)c2[nH]cnc2c1 [Compound 22] | 50 | – | – | – | – | 74 | –
Oc1ccc(N2CCOCC2)cc1-c1nc2ccccc2s1 [Compound 11e] | – | – | – | – | – | – | IC50 [1]: > 50 µM
Oc1ccc(-c2ccccc2)cc1-c1nc2ccccc2s1 [Compound 11a] | – | – | – | – | – | – | IC50 [1]: 5 ± 1.5 µM
O=c1cc(-c2ccccc2)cc(-c2ccccc2)n1O [1-hydroxy-4,6-diphenylpyridin-2(1H)-one, reference compound] | – | – | – | – | – | – | GLO1 inhibition by positive control ([1]; 50 μM): complete inhibition
